From ChEMBL document CHEMBL1201862, “PubChem BioAssay data set” (2004)
Calls of active or inactive are those of the source.

Legend:
[1] = target: T1, RNA-binding protein pos-1 (Caenorhabditis elegans, UniProt G5EF15); experiment: disruptors of C. elegans POS-1 RNA interaction – biochemical, fluorescence polarization, dose response (AID 1964);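 note: purified POS-1 fused to maltose binding protein made in E. coli; potency of compounds blocking POS-1 binding to fluorescent RNA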
T1 sequence (G5EF15 whole entry): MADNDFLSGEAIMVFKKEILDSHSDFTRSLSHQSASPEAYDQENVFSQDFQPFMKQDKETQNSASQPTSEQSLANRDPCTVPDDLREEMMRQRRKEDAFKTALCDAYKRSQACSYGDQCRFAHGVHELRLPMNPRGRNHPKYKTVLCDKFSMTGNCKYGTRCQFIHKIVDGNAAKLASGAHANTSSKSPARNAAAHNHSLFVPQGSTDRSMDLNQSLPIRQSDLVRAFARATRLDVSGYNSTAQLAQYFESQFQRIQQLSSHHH

[2] = target: Bifunctional protein GlmU (Mycobacterium tuberculosis, UniProt P9WMN3); experiment: Inhibitors of Mycobacterial Glucosamine-1-phosphate acetyl transferase (GlmU). Secondary screen.; set-up: species or system Mycobacterium tuberculosis H37Rv
[3] = target: Induced myeloid leukemia cell differentiation protein Mcl-1 (Homo sapiens, UniProt Q07820); format: functional
HeLa = experiment: viability loss in HeLa cells – cell-based, 24 h, cherry-picked samples, cytotoxicity control, dose response (AID 504726); format: functional; details: Homo sapiens;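 note: potency for cytotoxicity as loss of luminescence signal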
Salmon testes DNA = experiment: acridine orange-DNA binding displacement – biochemical, fluorescence polarization, cherry-picked samples, set 2, artefact control for KSHV LANA DNA-binding inhibitor project, dose response (AID 504727); set-up: species or system Salmonidae
[4] = target: Cyclin-dependent kinase 5/CDK5 activator 1 (Homo sapiens, UniProt Q00535); experiment: blockade of human CDK5 activity – biochemical, cherry-picked samples, set 2, dose response (AID 504545)
Troponin, cardiac muscle = Troponin, cardiac muscle (Homo sapiens, UniProt P19429+P45379+P63316); experiment: compounds desensitizing RTF to calcium – biochemical, fluorescence, cardiac regulated thin filaments, triplicate IC50, dose response (AID 504742); format: protein-complex assay
[5] = target: T2, Endoribonuclease toxin MazF (Escherichia coli K-12, UniProt P0AE70); experiment: activation of MazEF endoribonuclease cleavage – biochemical, fluorescence, single-stranded RNA substrate, uHTS hits, dose response (AID 588481); format: functional
T2 sequence (P0AE70 whole entry): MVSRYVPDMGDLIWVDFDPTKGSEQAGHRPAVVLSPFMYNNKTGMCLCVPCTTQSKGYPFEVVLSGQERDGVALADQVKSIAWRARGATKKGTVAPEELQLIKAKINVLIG

Genome polyprotein = Genome polyprotein (dengue virus type 2, UniProt P29990); experiment: flavivirus cap methylation enzyme inhibition – biochemical, confirmation dose response, primary screen (AID 588689); format: functional
[6] = target: Polyadenylate-binding protein 1 (Homo sapiens, UniProt P11940); experiment: MLLE binding blockers, Cy5 peptide tracer – biochemical, fluorescence polarization, Cy5-PAM2 peptide, secondary, miRNA deadenylation inhibitor project, dose response (AID 602260); format: functional; details: read-out: IC50_Mean
Albumin = Albumin (Bos taurus, UniProt P02769); experiment: Counterscreen for inhibitors of T-cell receptor (TCR)-CD3 interaction: Fluorescence-based biochemical high throughput dose response assay to identify inhibitors of T-cell receptor (TCR)-CD3 interaction using a TAMRA-labeled BSA probe.; format: functional
Caspase-6 = Caspase-6 (Homo sapiens, UniProt P55212); experiment: inhibition of CASP6 peptide cleavage – biochemical, VEID-R110 fluorescence, cherry-pick, dose response (AID 720632)
[7] = target: T3, Histone-lysine N-methyltransferase NSD2 (Homo sapiens, UniProt O96028); format: biochemical
T3 sequence (O96028 whole entry): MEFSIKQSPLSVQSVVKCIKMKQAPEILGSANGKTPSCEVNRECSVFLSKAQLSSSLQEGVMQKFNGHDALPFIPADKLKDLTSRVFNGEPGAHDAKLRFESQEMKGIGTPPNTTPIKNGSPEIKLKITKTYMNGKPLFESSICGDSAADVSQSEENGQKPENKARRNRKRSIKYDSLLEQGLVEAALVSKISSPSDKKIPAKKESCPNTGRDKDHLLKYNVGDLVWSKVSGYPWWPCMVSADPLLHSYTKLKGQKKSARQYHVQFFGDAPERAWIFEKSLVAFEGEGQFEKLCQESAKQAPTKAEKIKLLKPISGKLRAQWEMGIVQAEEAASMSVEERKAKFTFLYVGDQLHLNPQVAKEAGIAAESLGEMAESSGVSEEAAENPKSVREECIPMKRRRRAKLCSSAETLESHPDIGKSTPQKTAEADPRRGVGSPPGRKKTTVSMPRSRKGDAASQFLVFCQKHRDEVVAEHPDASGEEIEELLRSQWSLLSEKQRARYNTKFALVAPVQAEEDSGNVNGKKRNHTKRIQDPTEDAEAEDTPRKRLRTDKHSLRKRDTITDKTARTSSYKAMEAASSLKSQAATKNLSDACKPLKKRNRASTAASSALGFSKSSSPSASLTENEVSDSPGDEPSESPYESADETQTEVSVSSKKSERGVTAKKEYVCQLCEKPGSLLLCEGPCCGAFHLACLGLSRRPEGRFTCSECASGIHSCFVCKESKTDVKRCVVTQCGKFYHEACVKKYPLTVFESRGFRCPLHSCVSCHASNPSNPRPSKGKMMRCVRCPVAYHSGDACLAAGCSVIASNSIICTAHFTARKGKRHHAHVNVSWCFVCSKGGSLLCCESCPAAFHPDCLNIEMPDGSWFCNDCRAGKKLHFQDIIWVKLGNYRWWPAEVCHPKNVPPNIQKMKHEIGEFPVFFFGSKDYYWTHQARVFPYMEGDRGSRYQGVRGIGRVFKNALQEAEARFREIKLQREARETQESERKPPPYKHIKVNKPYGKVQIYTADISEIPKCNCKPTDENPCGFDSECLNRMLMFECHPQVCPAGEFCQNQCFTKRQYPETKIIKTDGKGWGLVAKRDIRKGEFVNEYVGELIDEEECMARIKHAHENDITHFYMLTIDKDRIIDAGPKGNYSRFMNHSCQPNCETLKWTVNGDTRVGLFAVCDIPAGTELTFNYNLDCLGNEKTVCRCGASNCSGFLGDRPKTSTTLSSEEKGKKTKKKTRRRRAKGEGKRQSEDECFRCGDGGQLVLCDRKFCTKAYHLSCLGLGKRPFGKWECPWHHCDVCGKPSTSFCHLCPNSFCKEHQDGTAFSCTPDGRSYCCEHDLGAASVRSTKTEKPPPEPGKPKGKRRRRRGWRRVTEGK

Caspase-8 = Caspase-8 (Homo sapiens, UniProt Q14790); experiment: inhibitors of purified CASP8 protease – biochemical, Z-IETD-R110 fluorescence, cherry-picked samples, selectivity assay for caspase-6 inhibitor project, dose response (AID 743294)
Cytochrome P450 3A4 = Cytochrome P450 3A4 (Homo sapiens, UniProt P08684); details: Potency;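 note: confirmatory qHTS run detecting inhibitors and substrates of CYP3A4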

## O=c1c(O)cccc2cc(O)c(O)c(O)c12 [PURPUROGALLIN]
[1]
  EC50: 6.57 µM (active)
[2]
  IC50: 21.5 µM (active)
[3]
  IC50: > 54 µM (active)
HeLa
  AC50: 103 µM (active)
Salmon testes DNA
  AC50: 49.9 µM (active)
[4]
  AC50: 23.2 µM (active)
Troponin, cardiac muscle
  IC50: 3.62 µM (active)
[5]
  EC50: 80.3 µM (inactive)
Genome polyprotein
  IC50: 12.2 µM (active)
[6]
  IC50: > 66 µM (inactive)
Albumin
  IC50: > 94.1 µM (inactive)
Caspase-6
  AC50: 80.4 nM (active)
[7]
  AC50: 532 nM (active)
Caspase-8
  AC50: > 70 µM (inactive)
Cytochrome P450 3A4
  AC50: 31.6 µM (inconclusive)
